Reference: patent US20040235919A1, “Phenylacetamido-thiazole derivatives, process for the preparation and their use as antitumor agents” (priority 2001, published 2004)

Molecular target: cdk2/cyclin A (Homo sapiens, UniProt P24941)
Assay: Inhibition assay of cdk2/Cyclin A activity (SPA)
Assay type: biochemical
Conditions: tested against cdk2/cyclin A; read-out: inhibitory activity, expressed as IC50
Excerpt: When the number of compounds to be tested became consistent, the need for a fast and homogeneous screening assay was raised. Thus a method of assay based on the use of the SPA technology (Amersham Pharmacia Biotech) was set up. The assay consists of the transfer of radioactivity labelled phosphate moiety by the kinase to a biotinylated substrate. The resulting 33P-labelled biotinylated product is allowed to bind to streptavidin-coated SPA beads (biotin capacity 130 pmol/mg), and light emitted was measured in a scintillation counter.
Inhibition Assay of cdk2/Cyclin A Activity
Kinase reaction: 4 microM in house biotinylated histone H1 (Sigma # H-5505) substrate, 10 microM ATP (0.1 microCi P^33gamma-ATP), 4.2 ng cdk2/Cyclin A complex, inhibitor in a final volume of 30 microl buffer (TRIS HCl 10 mM pH 7.5, MgCl2 10 mM, DTT 7.5 mM+0.2 mg/ml BSA) were added to each well of a 96 U bottom. […]
After 20 min. incubation for substrate capture, 100 microl 5M CsCl were added to allow statification of beads to the top of the plate and let stand 4 hours before radioactivity counting in the Top-Count instrument
IC50 determination: inhibitors were tested at different concentrations ranging from 0.0015 to 10 microM. Experimental data were analyzed by the computer program GraphPad Prizm using the four parameter logistic equation: […]

Row | IC50 | SMILES
1 | 11 nM | CC(=O)Nc1ccc([C@H](C)C(=O)Nc2ncc(C(C)C)s2)cc1 [(2S)-2-[4-(acetylamino)phenyl]-N-(5-isopropyl-1,3-thiazol-2-yl)propanamide]
2 | 110 nM | CC(=O)Nc1ccc(CC(=O)Nc2ncc(C(C)C)s2)cc1 [N-(5-isopropyl-1,3-thiazol-2-yl)-2-[4-(acetylamino)phenyl]acetamide]
